Assay results as given in US20250171463A1 (BIOGEN MA INC., priority 2022, published 2025).

Target: T1, EBP (Homo sapiens, UniProt Q15125)
T1 construct: HEK293T cells were utilized as the source of EBP enzyme; endogenous in cells; host or cells: HEK293T
Assay: EBP Functional Assay (EBP immunoaffinity LC-MS assay)
Type: biochemical
Conditions: EBP enzyme from HEK293T cells; 30 min with inhibitor, then zymosterol-d5, 37° C., 4 h; percent conversion to dehydrolathosterol-d5 by LC-APCI MRM MS
Procedure: The EBP immunoaffinity (IA) LC-MS assay measures the potency of small molecule inhibitors of EBP by quantifying their concentration-dependent changes in the enzyme's substrate and product using liquid chromatography atmospheric pressure chemical ionization multiple reaction monitoring mass spectrometry (LC-APCI MRM MS). HEK293T cells were utilized as the source of EBP enzyme. The enzyme was incubated with the small molecule inhibitors at variable concentrations for 30 min. Deuterated form of EBP substrate, zymosterol-d5 (Avanti Polar Lipids, Cat #700068P-1 mg), was then added and the plate was incubated at 37° C. for 4 h. Finally, the sterol isomers were extracted and injected to LC-APCI MRM MS. MRM transition used for the quantification for both zymosterol and […] (substrate and product of EBP enzymatic reaction, respectively) is 372.3-203.2, CE 30 and DP 80 in positive ion mode. Percent conversion of the zymosterol-d5 to dehydrolathosterol-d5 was used to derive IC50 curves. Tasin-1 (1′-[(4-Methoxyphenyl)sulfonyl]-4-methyl-1,4′-bipiperidine, CAS 792927-06-1) was used as the reference small molecule inhibitor.
Percent conversion versus the compound concentration data were fit to the following 4-parameter logistic model to generate IC50 curves: […]

T1 sequence (Q15125 whole entry): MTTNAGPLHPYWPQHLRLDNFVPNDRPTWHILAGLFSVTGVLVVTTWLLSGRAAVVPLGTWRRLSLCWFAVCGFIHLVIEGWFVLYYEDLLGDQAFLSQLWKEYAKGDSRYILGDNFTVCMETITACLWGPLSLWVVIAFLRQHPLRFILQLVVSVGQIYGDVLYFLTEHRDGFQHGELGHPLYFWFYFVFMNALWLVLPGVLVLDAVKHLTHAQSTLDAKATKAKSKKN

Structure (SMILES) | IC50 [nM]
O=S(=O)(c1cc(F)cc(F)c1)N1CCO[C@@]2(CCN(C3CCOCC3)C2)C1 (single isomer, unassigned) [Example 15] | 100 to 250
Cc1nc(C(F)(F)F)ccc1S(=O)(=O)N1CC2(CN(C[C@@H]3CC[C@H]4C[C@H]3CO4)C2)C1 (racemic) [Example 175] | < 100
Cc1nc(C(F)(F)F)ccc1S(=O)(=O)N1CC2(CN(C3CCOCC3C)C2)C1 (centres unmarked) [Example 145] | < 100
Cn1nc(C(F)(F)F)cc1S(=O)(=O)N1CC2(CN(CC3COCCO3)C2)C1 (racemic) [Example 215, rac-2-((1,4-dioxan-2-yl)methyl)-6-((1-methyl-3-(trifluoromethyl)-1H-pyrazol-5-yl)sulfonyl)-2,6-diazaspiro[3.3]heptane] | 250 to 4000
Cc1nc(C(F)(F)F)ccc1S(=O)(=O)N1CC2(CN(C(C)C3CCOCC3)C2)C1 (racemic) [Example 153, rac-2-((2-methyl-6-(trifluoromethyl)pyridin-3-yl)sulfonyl)-6-(1-(tetrahydro-2H-pyran-4-yl)ethyl)-2,6-diazaspiro[3.3]heptane] | < 100
O=S(=O)(c1ccc(C(F)(F)F)nc1Cl)N1CC2(CN(C3CCOCC3)C2)C1 [Example 192, 2-((2-chloro-6-(trifluoromethyl)pyridin-3-yl)sulfonyl)-6-(tetrahydro-2H-pyran-4-yl)-2,6-diazaspiro[3.3]heptane] | < 100
Cn1nc2c(c1S(=O)(=O)N1CC3(CN(C4CCOCC4)C3)C1)CCC2 [Example 169, 2-methyl-3-((6-(tetrahydro-2H-pyran-4-yl)-2,6-diazaspiro[3.3]heptan-2-yl)sulfonyl)-2,4,5,6-tetrahydrocyclopenta[c]pyrazole] | 250 to 4000
Cc1nc(C(F)(F)F)ccc1S(=O)(=O)N1CC2(CN(C(C)C3CCOC3)C2)C1 (mixture of isomers) [Example 130] | < 100
COC1CCC(N2CC3(C2)CN(S(=O)(=O)c2ccc(C(F)F)nc2C2CC2)C3)CC1 (single isomer, unassigned) [Example 117, 2-((2-cyclopropyl-6-(difluoromethyl)pyridin-3-yl)sulfonyl)-6-(4-methoxycyclohexyl)-2,6-diazaspiro[3.3]heptane] | 250 to 4000
Cc1nc(C(F)(F)F)ccc1S(=O)(=O)N1CC2(CN(CCOC(C)(C)C)C2)C1 [Example 185] | < 100
O=S(=O)(c1ccc(OC(F)F)cc1)N1CC2(CCN(C3CCOCC3)C2)C1 [Example 54] | 100 to 250
CCSCCCN1CC2(C1)CN(S(=O)(=O)c1ccc(C(F)(F)F)nc1C)C2 [Example 183] | < 100
Cc1nc(C(C)(F)F)ccc1S(=O)(=O)N1CC2(CN(C(C)C3COC3)C2)C1 (centres unmarked) [Example 88] | 100 to 250
Cc1nc(C(F)(F)F)ccc1S(=O)(=O)N1CC2(CN(CC3CCOC3)C2)C1 (single isomer, unassigned) [Example 161] | 250 to 4000
O=S(=O)(c1ccc(C(F)(F)F)nc1C(F)(F)F)N1CC2(CN(CC3CCOCC3)C2)C1 [Example 111] | < 100
O=S(=O)(c1ccc(OC(F)F)cc1)N1CCOC2(CCN(CC3CCOCC3)C2)C1 (centres unmarked) [Example 18, 9-((4-(Difluoromethoxy)phenyl)sulfonyl)-2-((tetrahydro-2H-pyran-4-yl)methyl)-6-oxa-2,9-diazaspiro[4.5]decane] | 250 to 4000
CC1(CN2CCC3(CC2)CN(S(=O)(=O)c2ccc(OC(F)F)cc2)CCO3)COC1 [Example 20, 4-((4-(Difluoromethoxy)phenyl)sulfonyl)-9-((3-methyloxetan-3-yl)methyl)-1-oxa-4,9-diazaspiro[5.5]undecane] | 100 to 250
O=S(=O)(c1cc(C(F)F)nn1C1CC1)N1CC2(CN(C3CCOCC3)C2)C1 [Example 120, 2-((1-cyclopropyl-3-(difluoromethyl)-1H-pyrazol-5-yl)sulfonyl)-6-(tetrahydro-2H-pyran-4-yl)-2,6-diazaspiro[3.3]heptane] | 100 to 250
O=S(=O)(c1ccc(C(F)(F)F)nc1C(F)(F)F)N1CC2(CN(C3CC4(COC4)C3)C2)C1 [Example 110] | 250 to 4000
COc1ccc(S(=O)(=O)N2CC3(CN(C4CCOCC4)C3)C2)c(C)n1 [Example 47] | 100 to 250
O=S(=O)(c1cc(F)cc(F)c1)N1CCOC2(CCN(C3CCOCC3)C2)C1 (centres unmarked) [Example 13, 9-((3,5-Difluorophenyl)sulfonyl)-2-(tetrahydro-2H-pyran-4-yl)-6-oxa-2,9-diazaspiro[4.5]decane] | < 100

Structure (SMILES) | IC50 [nM]
Cc1nc(C(F)(F)F)ccc1S(=O)(=O)N1CC2(CN(C(C)C3CCCO3)C2)C1 (mixture of isomers) [Example 138] | < 100
Cn1nc(C(F)(F)F)cc1S(=O)(=O)N1CC2(CCN(C3CCOCC3)C2)C1 [Example 55] | < 100
Cc1nc(C(C)(C)F)ccc1S(=O)(=O)N1CC2(CN(C3CC4(COC4)C3)C2)C1 [Example 92, 2-((6-(2-fluoropropan-2-yl)-2-methylpyridin-3-yl)sulfonyl)-6-(2-oxaspiro[3.3]heptan-6-yl)-2,6-diazaspiro[3.3]heptane] | < 100
Cc1nc(C(F)(F)F)ccc1S(=O)(=O)N1CC2(CN(CC3CCOC3)C2)C1 (single isomer, unassigned) [Example 160] | 100 to 250
COc1ccc(S(=O)(=O)N2CC3(CN(C4CCOCC4)C3)C2)c(Cl)n1 [Example 98, 2-((2-chloro-6-methoxypyridin-3-yl)sulfonyl)-6-(tetrahydro-2H-pyran-4-yl)-2,6-diazaspiro[3.3]heptane] | < 100
O=S(=O)(c1cccnc1C(F)(F)F)N1CC2(CN(C3CCOCC3)C2)C1 [Example 162, 2-(tetrahydro-2H-pyran-4-yl)-6-((2-(trifluoromethyl)pyridin-3-yl)sulfonyl)-2,6-diazaspiro[3.3]heptane] | 250 to 4000
Cc1nc(C(C)(F)F)ccc1S(=O)(=O)N1CC2(CN(C(C)C3CCOC3)C2)C1 (centres unmarked) [Example 86] | < 100
Cc1nc(C(F)(F)F)ccc1S(=O)(=O)N1CC2(CN(C(C)C3(C)CCCO3)C2)C1 (mixture of isomers) [Example 135] | < 100
O=S(=O)(c1cnc(Cl)c(C(F)(F)F)c1)N1CC2(CN(C3CCOCC3)C2)C1 [Example 165, 2-((6-chloro-5-(trifluoromethyl)pyridin-3-yl)sulfonyl)-6-(tetrahydro-2H-pyran-4-yl)-2,6-diazaspiro[3.3]heptane] | 250 to 4000
Cn1nc(C(F)(F)F)cc1S(=O)(=O)N1CCC2(CN(C3CCOCC3)C2)C1 [Example 60, 6-((1-methyl-3-(Trifluoromethyl)-1H-pyrazol-5-yl)sulfonyl)-2-(tetrahydro-2H-pyran-4-yl)-2,6-diazaspiro[3.4]octane] | < 100
Cc1nc(C(C)(F)F)ccc1S(=O)(=O)N1CC2(CN(CC3CCOCC3)C2)C1 [Example 81] | < 100
O=S(=O)(c1ccc(OC(F)F)cc1)N1CCO[C@@]2(CCN([C@@H]3CCCOC3)C2)C1 (racemic) [Example 9, (±)—(R)-9-((4-(Difluoromethoxy)phenyl)sulfonyl)-2-((R)-tetrahydro-2H-pyran-3-yl)-6-oxa-2,9-diazaspiro[4.5]decane] | 250 to 4000
CC1(O)CCC(N2CC3(C2)CN(S(=O)(=O)c2cnc(C(F)(F)F)cc2C2CC2)C3)CC1 (single isomer, unassigned) [Example 124, 4-(6-((4-cyclopropyl-6-(trifluoromethyl)pyridin-3-yl)sulfonyl)-2,6-diazaspiro[3.3]heptan-2-yl)-1-methylcyclohexan-1-ol] | 100 to 250
O=S(=O)(c1ccc(C(F)(F)F)nc1C(F)(F)F)N1CC2(CN(CC3COC3)C2)C1 [Example 112] | 250 to 4000
CCc1nc(C(F)F)ccc1S(=O)(=O)N1CC2(C1)CN([C@H]1CC[C@](C)(O)CC1)C2 [Example 207, (1r,4r)-4-(6-((6-(difluoromethyl)-2-ethylpyridin-3-yl)sulfonyl)-2,6-diazaspiro[3.3]heptan-2-yl)-1-methylcyclohexan-1-ol] | 250 to 4000
Cc1nc(C(F)(F)F)ccc1S(=O)(=O)N1CC2(CN(CC3(C)CCOCC3)C2)C1 [Example 129, 2-((2-methyl-6-(trifluoromethyl)pyridin-3-yl)sulfonyl)-6-((4-methyltetrahydro-2H-pyran-4-yl)methyl)-2,6-diazaspiro[3.3]heptane] | < 100
O=S(=O)(c1ccc(OC(F)(F)F)cc1F)N1CC2(CN(C3CCOCC3)C2)C1 [Example 214, 2-((2-fluoro-4-(trifluoromethoxy)phenyl)sulfonyl)-6-(tetrahydro-2H-pyran-4-yl)-2,6-diazaspiro[3.3]heptane] | 250 to 4000
O=S(=O)(c1ccc(C(F)(F)F)nc1C(F)(F)F)N1CC2(CN(C3CCOCC3)C2)C1 [Example 109, 2-((2,6-bis(trifluoromethyl)pyridin-3-yl)sulfonyl)-6-(tetrahydro-2H-pyran-4-yl)-2,6-diazaspiro[3.3]heptane] | 250 to 4000
Cc1nc(C(F)(F)F)ccc1S(=O)(=O)N1CC2(CN(C(C)C3CCCOC3)C2)C1 (centres unmarked) [Example 137] | < 100
O=S(=O)(c1cnc(C2CC2)s1)N1CCOC2(CCN(C3CCOCC3)C2)C1 (centres unmarked) [Example 23, 9-((2-Cyclopropylthiazol-5-yl)sulfonyl)-2-(tetrahydro-2H-pyran-4-yl)-6-oxa-2,9-diazaspiro[4.5]decane] | 100 to 250
